Results reported in patent publication US20070032477A1, “Pteridine derivatives useful for making pharmaceutical compositions” (priority 2003, published 2007).

Tests used:
Format in all cases: in vivo
[1] = system: TNF-α induced shock in C57BL/6 male mice; assay: Protection against a lethal dose of TNF-α
Experimental: A model of TNF-α induced shock in C57BL/6 male mice was performed as follows. Five animals from the control group received an intravenous administration of a lethal dose of TNF-α (10 μg) in the tail. Ten animals from the test group received three intraperitoneous injections of the pteridine derivative of example 17 (20 mg/kg/day) respectively 48 hours, 24 hours and immediately before an intravenous injection of TNF-α (10 μg).
Furthermore, all five mice from the control group died within 40 hours, the survival rate (80%) of mice that received the pteridine derivative of example 17 in addition to the TNF-α dose (10 μg) was quite substantial.

[2] = system: B16BL/6 melanomasarcoma cells in C57BL/6 mice; assay: Inhibition of the metastasis of melanoma cells in mice; conditions: for proportion of mice having metastasis: inguinal and/or para-aortic lymph nodes
Experimental: C57BL/6 mice were injected with 1.5×10^6 B16BL/6 melanomasarcoma cells subcutaneously in the foot path and were divided, three days later, into 4 groups: • a control 1 group of 6 mice receiving only vehicle 3 times a week; • a control 2 group of 5 mice receiving a lethal dose of TNF (15 μg, subcutaneously) 3 times a week; • a group 3 receiving the pteridine derivative of example 17 alone 3 times a week at 20 mg/kg • a group 4 of 7 mice receiving the pteridine derivative of example 17 in an amount of 20 mg/kg intraperitenously on days 3, 4, and 5 and also receiving TNF (15 μg, subcutaneously) on day 5. This combined treatment with TNF and the pteridine derivative of example 17 was continued for 2 weeks.
Reduction of tumor size is also true in mice of group 3, although to a lesser extent (198 mm^2).
All mice of control group 2 died within the very first days of treatment, whereas mortality was 3/7 in mice of group 4.
At the end of experiment, it was looked macroscopically at black metastasis in inguinal and/or para-aortic lymphoneuds in all tumor bearing groups of mice. The proportions of mice having metastasis were: • 4/5 mice in control group 1, • 0/4 mice in group 4, and • 2/4 in group 3.

[3] = system: TNBS-induced colitis in C57 BL/6 mice; assay: Trinitrobenzenesulfonate-induced colitis test in mice (Example 209)
Experimental: C57 BL/6 mice (4-5 weeks) were obtained from M&B (Denmark), bred under standard pathogen-free conditions and maintained in the certified animal facility of the University Hospital Gasthuisberg, Catholic University of Leuven (Belgium). Experiments were approved by the local Ethical Committee of Animal Experimentation. Mice were sensitized twice 10 days and 5 days before rectal challenge. For sensitization, a 2×2 cm field of the abdominal skin was shaved, and 100 μl of 5 mg trinitrobenzenesulfonate (hereinafter referred as TNBS) in 50% ethanol solution was applied. On the day of challenge, mice were first lightly anesthetized with metofane. Subsequently TNBS (1 mg in 50% ethanol) was administered per rectum via a round-tip needle equipped with a 1-ml syringe. The tip of the needle was inserted so that the tip was about 3.5 to 4 cm proximal to the anal verge and TNBS was injected with a total volume of 100 μl. To ensure distribution of TNBS within the entire colon and cecum, mice were held in a vertical position for 1 minute after the injection.
The compound of example 176 (2-amino-6-(3,4-dimethoxyphenyl)-4-[N-(4-methyl-phenyl)-piperazin-1-yl]pteridine) was given to the mice by daily gavage at the dose of 20 mg/kg (400 μg in 100 μl H2O). Control mice were treated with 100 μl H2O only. Body weights of all animals were recorded daily in order to follow the development of inflammatory colitis over a period of 10 days.
Both macroscopic and microscopic histology evaluations were performed as follows. Mice were sacrificed at day 2 by cervical […], the colon was excised and was immediately examined visually, and damage was scored on a 0-12 scale. Colon sections were then fixed in 6% formalin and embedded in paraffin, cut into sections, and then stained with hematoxylin and eosin. Stained sections were examined for evidence of colitis using as criteria the presence of cell infiltration, elongation and/or distortion of crypts, crypt abscesses, reduction in goblet cell number, frank ulceration, and oedema formation.
MPO activity was measured as follows. Two days after intracolonic injection of TNBS, 50 mg colon was removed, homogenised and sonicated on ice. Samples were frozen in liquid nitrogen and subsequently thawed in a water bath at 37° C., each step lasted 3 minutes and the procedure was repeated for two cycles. After centrifugation, an aliquot of the supernatant was then allowed to react with a solution of tetra-methyl-benzidine (1.6 mM) and 0.1 mM H2O2. The rate of change in absorbance was measured spectrophotometrically at 460 nm. MPO activity was defined as the quantity of enzyme degrading 1 μmole of peroxide/minute at 37° C. and was expressed in units per gram weight of wet tissue. Sample enzyme activity was measured from a standard curve of known MPO unit activity (assay sensitivity 5×10^−7 units per well).
Quantitative Reverse Transcriptase (RT)-PCR for cytokine mRNA was performed as follows: part of the colon tissues, removed on day 2 after TNBS application, was immediately frozen in liquid nitrogen after dissection and stored at −70° C. until extraction of total RNA using a method well known in the art. A constant amount of 1 μg of total RNA was used for oligo-(dT)-primed cDNA synthesis (Ready-to-go-kit, commercially available from Pharmacia, Sweden). After 90 minutes at 37° C., the reverse transcriptase was inactivated by incubating the cDNA samples for 5 minutes at 95° C. The amount of cDNA was quantified by real-time RT-PCR using specific primers for β-actin and TNF, with the ABI Prism 7700 Sequence Detectin System (SDS) commercially available from Applied Biosystems (California). PCR was performed in a total volume of 25 μl, containing 5 μl cDNA and 20 μl mix with the TaqMan® Universal PCR Master Mix (2×) (Applied Biosystems) combined with 300 nM of the primer and 100 nM of the probe. […]

[4] = group 4: example 17 20 mg/kg i.p. combined with TNF 15 μg s.c.
[5] = daily gavage 20 mg/kg, versus control mice

Structure (SMILES)	survival rate ([1]; TNF-α 10 μg i.v., 20 mg/kg/day i.p. three injections, within 40 hours) [%]	body temperature ([1]; followed for 40 hours, 20 mg/kg/day i.p. 48 h, 24 h and immediately before TNF-α 10 μg i.v.)	tumor size ([2]; group 3: example 17 alone 3 times a week at 20 mg/kg) [mm^2]	proportion of mice having metastasis ([2]; group 3: example 17 alone)	mortality [2, 4]	tumor size [2, 4] [mm^2]	proportion of mice having metastasis ([2]; group 4: example 17 combined with TNF)	recovery of original body weight earlier than control mice ([3]; daily gavage 20 mg/kg)	microscopic score ([3]; daily gavage 20 mg/kg, day 2)	average macroscopic score ([3]; daily gavage 20 mg/kg, day 2, 0-12 scale)	tissue MPO activity in colon ([3]; daily gavage 20 mg/kg, two days after TNBS) [U/g]	decrease of tissue MPO activity [3, 5] [fold]	reduction in average macroscopic score [3, 5] [%]	mRNA for other cytokines (IFN-γ and IL-18) in colon ([3]; day 2, compared to control mice)	cytokine mRNA level for TNF in colon ([3]; day 2, ratio to β-actin multiplied by 10^6)	Anti-TNBS antibody (IgG1 and IgG2a) levels ([3]; serum day 10, compared to control mice)
COc1ccc(-c2cnc3nc(N)nc(N4CCN(C(=O)COc5ccccc5)CC4)c3n2)cc1OC [Example 17, 2-amino-4-[(N-phenoxyacetyl)-piperazin-1-yl]-6-(3,4-dimethoxy-phenyl)pteridine]	80	body temperature of control mice dropped significantly when compared to mice receiving the test compound	198	2/4	3/7	120	0/4									
COc1ccc(-c2cnc3nc(N)nc(N4CCN(c5ccc(C)cc5)CC4)c3n2)cc1OC [Example 176, 2-amino-6-(3,4-dimethoxyphenyl)-4-((4-methylphenyl)-piperazin-1-yl)pteridine]								at least 4 days	5.7±0.6	6.2±0.4	6.7±1.4	2	30	no difference	18.1±8.5	similar
